Tested on: Plasmodium berghei
Experiment: Luciferase/luciferin-expressing antifolate-resistant parasites were used to infect a culture of HepG2 cells that were pre-incubated with compounds. Infected hepatocytes emit light due to the luciferase reaction. Assay results are presented as the percent inhibition of light emission compared to control. […]
Type: functional
Details: sporozoite; for IC90: read-out: LUCIFERASE INFECTION ASSAY - IC90

Row | Compound | IC90 [µM] | other results
1 | CCN(C(S)=Nc1cccnc1)c1cccc2ccccc12 | > 10 | IC50 (HEPG2TOX_HILL_SLOPE 1.34, HEPG2TOX_R_SQUARED 0.711, PBLUC_HILL_SLOPE 4.21, PBLUC_R_SQUARED 0.184, read-out: LUCIFERASE INFECTION ASSAY - IC50): 7.6 µM
2 | COc1ccc(CC(N)c2csc(NC(=O)c3cc(C(C)(C)C)nn3Cc3ccccc3)n2)cc1 (configuration not stated) | 5.64 | IC50 (HEPG2TOX_HILL_SLOPE 1.31, HEPG2TOX_R_SQUARED 0.716, PBLUC_HILL_SLOPE 7.57, PBLUC_R_SQUARED 0.705, read-out: LUCIFERASE INFECTION ASSAY - IC50): 4.22 µM
3 | CN(C)CCNC(=O)c1cccc(-c2cnc3ccc(-c4cccc(NS(C)(=O)=O)c4)nn23)c1 | 1.3 | IC50 (HEPG2TOX_HILL_SLOPE 1.31, HEPG2TOX_R_SQUARED 0.978, PBLUC_HILL_SLOPE 2.06, PBLUC_R_SQUARED 0.888, read-out: LUCIFERASE INFECTION ASSAY - IC50): 0.447 µM
4 | COc1ccc(-c2nc(C(=O)NC3CC3)cc3c2[nH]c2ccccc23)cc1 | 7.59 | IC50 (HEPG2TOX_HILL_SLOPE 1.32, HEPG2TOX_R_SQUARED 0.984, PBLUC_HILL_SLOPE 2.25, PBLUC_R_SQUARED 0.475, read-out: LUCIFERASE INFECTION ASSAY - IC50): 2.85 µM
5 | COc1cc(CSc2nc3ccccc3c(=O)n2C(C)C)ccc1OC(F)F | 3.99 | IC50 (HEPG2TOX_HILL_SLOPE 1.32, HEPG2TOX_R_SQUARED 0.932, PBLUC_HILL_SLOPE 1.38, PBLUC_R_SQUARED 0.834, read-out: LUCIFERASE INFECTION ASSAY - IC50): 0.81 µM
6 | COc1cc(C(=O)c2c(N)c(C#N)cn3c2nc2ccccc23)cc(OC)c1OC | 1.04 | IC50 (HEPG2TOX_HILL_SLOPE 1.34, 0.970, HEPG2TOX_R_SQUARED 0.842, 0.883, PBLUC_HILL_SLOPE 1.49, PBLUC_R_SQUARED 0.764, read-out: LUCIFERASE INFECTION ASSAY - IC50): 0.237 µM
7 | Cn1c(NCC2CC2)nc2cnc(Nc3cccc(Oc4ccccc4)c3)cc21 | 3.77 | IC50 (HEPG2TOX_HILL_SLOPE 1.32, HEPG2TOX_R_SQUARED 0.983, PBLUC_HILL_SLOPE 3.67, PBLUC_R_SQUARED 0.52, read-out: LUCIFERASE INFECTION ASSAY - IC50): 2.07 µM
8 | Cc1cc(C(=O)COc2ccccc2C(N)=O)c(C)n1C(C)c1ccccc1 (configuration not stated) | > 10 | IC50 (HEPG2TOX_HILL_SLOPE 1.33, HEPG2TOX_R_SQUARED 0.859, PBLUC_HILL_SLOPE 2.23, PBLUC_R_SQUARED 0.779, read-out: LUCIFERASE INFECTION ASSAY - IC50): 4.55 µM
9 | CC(C)c1ccc(NC(=O)C2=COC3=NC(=O)N(Cc4cccc(C#N)c4)CCN23)cc1 | 1.27 | IC50 (HEPG2TOX_HILL_SLOPE 1.33, HEPG2TOX_R_SQUARED 0.794, PBLUC_HILL_SLOPE 15.4, PBLUC_R_SQUARED 0.591, read-out: LUCIFERASE INFECTION ASSAY - IC50): 1.1 µM
10 | COc1ccc(CN=C2NN=C(c3cc4ccccc4o3)CS2)cc1 | 0.318 | IC50 (HEPG2TOX_HILL_SLOPE 1.33, HEPG2TOX_R_SQUARED 0.982, PBLUC_HILL_SLOPE 1.63, PBLUC_R_SQUARED 0.322, read-out: LUCIFERASE INFECTION ASSAY - IC50): 0.0829 µM
11 | COc1ccc(-c2ccc3nnc(-c4ccccc4)n3c2)cc1 | 5.12 | IC50 (HEPG2TOX_HILL_SLOPE 1.32, HEPG2TOX_R_SQUARED 0.91, PBLUC_HILL_SLOPE 2.27, PBLUC_R_SQUARED 0.548, read-out: LUCIFERASE INFECTION ASSAY - IC50): 1.94 µM
12 | Cc1cc(C(=O)OCC(=O)NC(C)c2ccccc2)c(C)n1-c1ccccc1 (configuration not stated) | > 10 | IC50 (HEPG2TOX_HILL_SLOPE 1.33, HEPG2TOX_R_SQUARED 0.976, PBLUC_HILL_SLOPE 3.52, PBLUC_R_SQUARED 0.43, read-out: LUCIFERASE INFECTION ASSAY - IC50): 7.39 µM
13 | CCOc1cccc(-c2cn3c(-c4ccc(C(=O)NC5CC5)cc4)cnc3cn2)c1 | 8.02 | IC50 (HEPG2TOX_HILL_SLOPE 1.3, HEPG2TOX_R_SQUARED 0.854, PBLUC_HILL_SLOPE 1.74, PBLUC_R_SQUARED 0.806, read-out: LUCIFERASE INFECTION ASSAY - IC50): 2.27 µM
14 | CC(C)n1ncc2c1N=C(N(C)C)N(c1ccccc1)C2c1ccc(Cl)cc1 (configuration not stated) | > 10 | IC50 (HEPG2TOX_HILL_SLOPE 1.3, HEPG2TOX_R_SQUARED 0.392, read-out: LUCIFERASE INFECTION ASSAY - IC50): > 10 µM
15 | O=C(NC(CN1CCCC1)c1ccccc1)c1ccc(N2CCCC2=O)cc1 (configuration not stated) | > 10 | IC50 (HEPG2TOX_HILL_SLOPE 1.34, HEPG2TOX_R_SQUARED 0.227, PBLUC_HILL_SLOPE 0.905, PBLUC_R_SQUARED 0.0409, read-out: LUCIFERASE INFECTION ASSAY - IC50): > 10 µM
16 | CCOC(=O)c1oc2ccc(Br)cc2c1CSc1nnc(-c2cccs2)n1Cc1ccccc1 | > 10 | IC50 (HEPG2TOX_HILL_SLOPE 1.32, HEPG2TOX_R_SQUARED 0.694, read-out: LUCIFERASE INFECTION ASSAY - IC50): > 10 µM

Row | Compound | IC90 [µM] | other results
17 | CC(Oc1ccc(C#N)cc1)C(=O)Nc1nc(-c2ccccn2)cs1 (configuration not stated) | 3.36 | IC50 (HEPG2TOX_HILL_SLOPE 1.33, HEPG2TOX_R_SQUARED 0.927, PBLUC_HILL_SLOPE 145, PBLUC_R_SQUARED 0.223, read-out: LUCIFERASE INFECTION ASSAY - IC50): 3.31 µM
18 | CCCc1cc(=O)n2ncc(-c3ccc(Cl)cc3)c2[nH]1 | 3.65 | IC50 (HEPG2TOX_HILL_SLOPE 1.31, HEPG2TOX_R_SQUARED 0.875, PBLUC_HILL_SLOPE 1.68, PBLUC_R_SQUARED 0.622, read-out: LUCIFERASE INFECTION ASSAY - IC50): 0.989 µM
19 | CCOC(=O)c1[nH]c(C)c(C(=O)/C=C/c2c(C)nn(-c3ccc(F)cc3)c2Cl)c1C | 0.643 | IC50 (HEPG2TOX_HILL_SLOPE 1.33, HEPG2TOX_R_SQUARED 0.905, PBLUC_HILL_SLOPE 0.748, PBLUC_R_SQUARED 0.781, read-out: LUCIFERASE INFECTION ASSAY - IC50): 0.0341 µM
20 | Cc1nc(NCCCCCc2n[nH]c(N)c2C#N)c2c(-c3ccccc3)csc2n1 | 7.48 | IC50 (HEPG2TOX_HILL_SLOPE 1.31, HEPG2TOX_R_SQUARED 0.867, PBLUC_HILL_SLOPE 3.24, PBLUC_R_SQUARED 0.486, read-out: LUCIFERASE INFECTION ASSAY - IC50): 3.79 µM
21 | CCc1nnc(NC(=O)/C=C/c2cc(Cl)c(OC(C)C)c(OC)c2)s1 | > 10 | IC50 (HEPG2TOX_HILL_SLOPE 1.31, HEPG2TOX_R_SQUARED 0.955, PBLUC_HILL_SLOPE 2.51, PBLUC_R_SQUARED 0.0872, read-out: LUCIFERASE INFECTION ASSAY - IC50): 6.82 µM
22 | c1ccc(-c2cn3c(-c4ccc5ncccc5c4)cnc3cn2)cc1 | 2.41 | IC50 (HEPG2TOX_HILL_SLOPE 1.31, HEPG2TOX_R_SQUARED 0.967, PBLUC_HILL_SLOPE 1.9, PBLUC_R_SQUARED 0.856, read-out: LUCIFERASE INFECTION ASSAY - IC50): 0.759 µM
23 | O=c1cc(-c2ccccc2)[nH]c2cc(-c3ccccc3)nn12 | > 11.5 | IC50 (HEPG2TOX_HILL_SLOPE 1.32, HEPG2TOX_R_SQUARED 0.936, PBLUC_HILL_SLOPE 1.62, PBLUC_R_SQUARED 0.566, read-out: LUCIFERASE INFECTION ASSAY - IC50): 3.75 µM
24 | COc1ccc(C(=O)c2cc(C#N)c(N)n3c2nc2ccccc23)cc1 | 3.53 | IC50 (HEPG2TOX_HILL_SLOPE 1.32, HEPG2TOX_R_SQUARED 0.922, PBLUC_HILL_SLOPE 2.77, PBLUC_R_SQUARED 0.822, read-out: LUCIFERASE INFECTION ASSAY - IC50): 1.6 µM
25 | Cn1ccc2cc(-c3cn4c(-c5ccccc5)cnc4cn3)ccc21 | 2.78 | IC50 (HEPG2TOX_HILL_SLOPE 1.3, HEPG2TOX_R_SQUARED 0.937, PBLUC_HILL_SLOPE 1.56, PBLUC_R_SQUARED 0.678, read-out: LUCIFERASE INFECTION ASSAY - IC50): 0.679 µM
26 | CCOC(=O)c1c(C)[nH]c(C(=O)C(C)OC(=O)CN2C(=O)C3CC=CCC3C2=O)c1C (configuration not stated) | > 10 | IC50 (HEPG2TOX_HILL_SLOPE 1.33, HEPG2TOX_R_SQUARED 0.914, read-out: LUCIFERASE INFECTION ASSAY - IC50): > 10 µM
27 | COc1ccc(CN2CCCN(C(=O)c3ccc(CSc4nc5ccccc5[nH]4)cc3)CC2)cc1 | > 10 | IC50 (HEPG2TOX_HILL_SLOPE 1.31, HEPG2TOX_R_SQUARED 0.944, read-out: LUCIFERASE INFECTION ASSAY - IC50): > 10 µM
28 | N#C/C(=N\Nc1ccc(Cl)cc1Cl)C(=O)c1ccc(Cl)cc1 | 1.16 | IC50 (HEPG2TOX_HILL_SLOPE 1.3, HEPG2TOX_R_SQUARED 0.915, PBLUC_HILL_SLOPE 13.3, PBLUC_R_SQUARED 0.668, read-out: LUCIFERASE INFECTION ASSAY - IC50): 0.987 µM
29 | C/C(=N\NC(=O)c1ccccc1)c1ccccc1O | > 13 | IC50 (HEPG2TOX_HILL_SLOPE 1.31, HEPG2TOX_R_SQUARED 0.966, PBLUC_HILL_SLOPE 10.4, PBLUC_R_SQUARED 0.464, read-out: LUCIFERASE INFECTION ASSAY - IC50): > 13 µM
30 | Clc1ccc(CSCc2cc(SCc3ccc(Cl)cc3Cl)nc(-c3ccccn3)n2)cc1 | 0.781 | IC50 (HEPG2TOX_HILL_SLOPE 1.3, HEPG2TOX_R_SQUARED 0.951, PBLUC_HILL_SLOPE 11.6, PBLUC_R_SQUARED 0.668, read-out: LUCIFERASE INFECTION ASSAY - IC50): 0.646 µM
31 | Cc1cc(-c2cc(C(=O)Nc3nnc(C(F)(F)F)[nH]3)c3cnn(C(C)C)c3n2)c(C)s1 | > 10 | IC50 (HEPG2TOX_HILL_SLOPE 1.32, HEPG2TOX_R_SQUARED 0.884, PBLUC_HILL_SLOPE 1.68, PBLUC_R_SQUARED 0.6, read-out: LUCIFERASE INFECTION ASSAY - IC50): 3.79 µM

From ChEMBL document CHEMBL4483862, “Open-source discovery of chemical leads for next-generation chemoprotective antimalarials” (2018)
